Data taken from patent publication US20100298299A1, “NON-PEPTIDE DERIVATIVES AS BRADYKININ B1 ANTAGONISTS” (priority 2007, published 2010).
Structures can show the parent of a compound that is named as a salt. Where two headings read alike, the source gives them in different places.

Columns and labels:
[1] = target: T1, recombinant human B1 receptors (Homo sapiens, UniProt P46663); experiment: Functional assay: antagonist potency by cytosolic calcium measurement in CHO-B1 cells; assay type: cell-based
T1 construct: host or cells: CHO (CHO-B1)
T1 sequence (P46663 1-353): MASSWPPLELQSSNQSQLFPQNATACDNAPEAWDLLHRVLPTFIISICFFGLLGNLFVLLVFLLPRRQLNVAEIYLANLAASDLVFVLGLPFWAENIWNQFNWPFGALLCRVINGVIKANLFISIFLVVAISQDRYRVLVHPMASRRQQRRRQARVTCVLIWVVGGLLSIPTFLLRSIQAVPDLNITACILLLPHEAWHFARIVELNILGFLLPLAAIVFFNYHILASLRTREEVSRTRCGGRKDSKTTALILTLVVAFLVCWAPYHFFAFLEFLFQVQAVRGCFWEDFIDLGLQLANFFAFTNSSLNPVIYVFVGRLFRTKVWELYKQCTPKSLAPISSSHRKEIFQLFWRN
Experimental: Assessment of Antagonist Potency at B1 and B2 Receptors In Vitro by Measurement of Cytosolic Calcium Ion Concentration with a Plate Reader Fluorimeter in Cells Expressing Recombinant Human B1 or B2 Receptors
Chinese hamster ovary (CHO) cells stably expressing recombinant human B1 (CHO-B1, Euroscreen) or B2 (CHO-B2, Perkin-Elmer) receptors were cultured in Dulbecco's Modified Eagle's Medium (DMEM) containing 10% Fetal Calf Serum (FCS), 100 U/ml penicillin, 0.1 mg/ml streptomycin, 0.25 μg/ml amphotericin B, 1% Minimum Essential Medium Eagle (MEM), non essential amino acid solution, 600 μg/ml G418, 1% pyruvate (for the B2 cell line). Cells were kept at 37° C. in a humidified incubator in an atmosphere of 5% CO2/95% air and were passaged 1:4 three times a week. Cells were plated at 1.5−2.5×10^4 cell/well on standard 96-well microplates, measurements of cytosolic calcium ion concentration ([Ca^2+]i) were carried out 1-2 days after cell plating.
Measurements of [Ca^2+]i were carried out on CHO-B1 and CHO-B2 cells stably expressing human B1 and B2 receptors, respectively. Cells were grown in standard 96-well microplates and before the measurement were loaded with a fluorescent Ca^2+-sensitive dye, fluo-4/AM (2 μM): after removing the culture medium the dye was added to the cells (dissolved in assay buffer: 145 mM NaCl, 5 mM KCl, 2 mM MgCl2, 2 mM CaCl2, 10 mM HEPES, 20 mM D-glucose, 2 mM probenecid, 100 μl/well) and cells were incubated at 37° C. in a humidified incubator in an atmosphere of 5% CO2/95% air for 40-120 min. To stop dye loading cells were washed twice with assay buffer. After washing, various concentrations of the test compounds (diluted in extracellular medium from a DMSO stock solution, final DMSO concentration was <0.1%) or buffer were added to each well depending on the experimental setup. After incubation at 37° C. for 20-25 min. baseline and agonist-evoked changes of [Ca^2+]i were measured column by column with a plate reader fluorimeter (Fluoroskan Ascent, Labsystems). Excitation and detection of emission was carried out from the bottom of the plate. Filters used for Fluo-4: excitation filter—485 nm, emission filter—538 nm. The whole measurement process was performed at 37° C. and was controlled by custom software. Inhibitory potency of the test compounds was assessed by measuring the reduction in the agonist-evoked [Ca^2+]i-elevation in the presence of different concentrations of the compounds. The agonists were LysDABK for CHO-B1, and bradykinin for CHO-B2 cells. Agonists were applied at an EC80 concentration, the EC80-values were derived from daily determined dose-response curves. Fluorescence data were expressed as ΔF/F (fluorescence change normalized to baseline). All treatments on a single plate were measured in multiple wells. Data from all wells with the same treatment were averaged and the average values were used for analysis. Inhibitory potency of a compound at a single concentration point was expressed as percent inhibition of the control agonist response. Sigmoidal concentration-inhibition curves were fitted to the data (derived from at least three independent experiments) and IC50-values were determined as the concentration that produces half of the maximal inhibition caused by the compound.

[2] = target: T2, human recombinant bradykinin B1 receptor (Homo sapiens, UniProt P46663); experiment: Human recombinant bradykinin B1 receptor binding
T2 construct: purchased Euroscreen ES-091; host or cells: CHO cells
T2 sequence (P46663 1-353): T1 sequence (P46663 1-353)
Experimental: 1. Human Recombinant Bradykinin B1 Receptor Binding
Binding assays were carried out on human recombinant bradykinin) receptors (expressed in CHO cells) according to the Euroscreen Technical Data Sheet (Cat. No.: ES-091). 20 μg protein/tube was incubated with [3,4-prolyl-3,4-^3H(N)]-[Des-Arg^10] Kallidin as radioligand. Non specific binding was determined in the presence of 10 μM Lys-des-Arg^9-Bradykinin. The final incubation volume was 250 μl. Samples were incubated for 15 min. at 25° C. then were rapidly vacuum filtered through GF/B filters presoaked for at least 1 h in 0.5% PEI. Radioactivity was determined by liquid scintillation spectroscopy.

[3] = reference compounds, functional test, read-out: IC50
[4] = reference compounds, binding test, read-out: Ki

Compound	IC50 ([1]; CHO-B1 cells, inhibition of LysDABK (EC80)-evoked [Ca2+]i elevation, read-out: B1 func.) [µM]	Ki ([2]; CHO cell membranes, [3H]-[Des-Arg10] Kallidin radioligand, read-out: B1 binding) [µM]	IC50 [1, 3] [µM]	Ki [2, 4] [µM]
O=C(CNC(=O)c1ccc(S(=O)(=O)Nc2ccccc2Sc2ccccc2)cc1)NCC1CCNCC1 [Example 39, 4-(2-Phenylsulfanyl-phenylsulfamoyl)-N-{[(piperidin-4-ylmethyl)-carbamoyl]-methyl}-benzamide hydrochloride]	< 0.02	< 0.02		
CN1CCN(C(=O)C2CCN(S(=O)(=O)c3ccc(NCC(c4ccccc4)c4ccccc4)c(C(=O)N4CCOCC4)c3)CC2)CC1 [NVP-SAA164, 4-{2-[(2,2-diphenyl-ethyl)-amino]-5-{4-[4-[(4-methyl-1-piperazinyl)-carbonyl]-1-piperidinyl]-sulfonyl}-benzoyl}-morfoline, reference compound]			0.033	0.008
CCCN1C(=O)[C@H](NC(=O)Nc2ccc(N3CCC(N4CCCCC4)CC3)cc2)N=C(c2ccc(C)cc2)c2ccccc21 [compound 3, N-[4-(4′-bipiperidin)-1′-ylphenyl]-N′-[(3R)-2,3-dihydro-5-(4-methyl-phenyl)-2-oxo-1-propyl-1H-1,4-benzodiazepin-3-yl]-urea, reference compound]			0.0645	0.0134
